From patent publication US20110070232A1, “Combination Therapy with an Antitumor Alkaloid” (Pharma Mar, S.A., priority 2008, published 2011)
pIC50: −log10 of the molar value. Read-outs that look alike come from different tables or passages of the source.

Tests used:
BxPC-3 tumors = type: in vivo, mice; settings: mg/kg/day: PM00104 0.90 IV
Protocol: Female CB17.SCID mice (Charles River Lab.) were utilized for all experiments. Animals were housed in ventilated rack caging with food and water ad libitum. The mice were acclimated for at least 5 days prior to tumor implantation with a tumor cell suspension.
The tumor model used in these studies was BxPC-3 cell line, which was obtained from the ATCC (Manassas, Va.).
Treatments were initiated on DPI 9.
(§1) Tumor size measurements were recorded twice weekly from the treatment initiation until the termination of the study.
(§2) Mean, standard deviation and standard error of the mean were determined for tumor volume for all animal groups at all assessments. Student's t test was performed on tumor volumes at each measurement day, including at the end of the study, to determine whether there were any statistically significant differences between combination treatment groups and single monotherapy treatment groups.

MRI-H-254 tumors = type: in vivo, mice
Protocol: Female athymic nude mice (Harlan Sprague Dawley, Madison, Wis.) were utilized for all experiments. Animals were housed in ventilated rack caging with food and water ad libitum. The mice were acclimated for at least 5 days prior to tumor implantation with tumor fragments. The Vehicle Control group contained 11 mice, groups 2-6 contained 8 mice/group, and the rest of groups contained 9 mice/group.
This cell line was grown and implanted to the animals as described in Example 11.
Tumor measurements were determined as disclosed in Example 4. […] Treatments were initiated on DPI 17.
PM00104 was provided in the form of vials of lyophilized PM00104 powder which was reconstituted with water for injection.
as §1, §2
The definition and criteria for the evaluation of potentiation and the degree of additivity for the combination therapy were the same as those disclose in Example 4.

[1] = system: LoVo (colon cancer) cell line; assay: IC50 determination, MIT (tetrazolium) assay, 72 h (Example 18); type: cell-based, human; settings: Homo sapiens, 72 hours of drug exposure
Protocol: (§3) Before plating, cell cultures were trypsinized and cell number estimated using an automated flow cytometer.
(§4) Cells were harvested and seeded in 96 well microtiter plates at the appropriate cell density (5,000-10,000 cells) in 150 μL of media and incubated for 24 hours to allow the cells to attach before drug addition.
(§5) After the incubation period (72 hours), 50 μL of MIT solution was added to each microtiter well and incubated for further 8 hours at 37° C. The culture medium was then removed and 50 μl, of DMSO were added to dissolve the MIT crystals. Optical densities were read at 540 nm on spectrophotometer microplate reader.
(§6) IC50 values were calculated from an average of two to four assays for each of the test agents.

[2] = system: HT-29 (colon cancer) cell line; assay: as above; type: cell-based, human; settings: Homo sapiens; HT-29, 72 hours of drug exposure
Protocol: as §3, §4, §5, §6

[3] = PM00104 0.90 IV, doxorubicin 6 IP, paclitaxel 12.5 IP mg/kg/day (G2, G5, G6, G7, G8)

C#Cc1cccc(Nc2ncnc3cc(OCCOC)c(OCCOC)cc23)c1 [erlotinib]
% Inhibition (BxPC-3 tumors; day 9, erlotinib 15 PO): 0.5% | % T/C on day (BxPC-3 tumors; day 9, erlotinib 15 PO): 99.5% | % Inhibition (BxPC-3 tumors; day 9, erlotinib 30 PO): −4.2% | % T/C on day (BxPC-3 tumors; day 9, erlotinib 30 PO): 104.2% | % Inhibition (BxPC-3 tumors; day 9, erlotinib 50 PO): −2.5% | % T/C on day (BxPC-3 tumors; day 9, erlotinib 50 PO): 102.5% | % Inhibition (BxPC-3 tumors; day 12, erlotinib 15 PO): 24.1% | % T/C on day (BxPC-3 tumors; day 12, erlotinib 15 PO): 75.9% | % Inhibition (BxPC-3 tumors; day 12, erlotinib 30 PO): 15.1% | % T/C on day (BxPC-3 tumors; day 12, erlotinib 30 PO): 84.9% | % Inhibition (BxPC-3 tumors; day 12, erlotinib 50 PO): 15.1% | % T/C on day (BxPC-3 tumors; day 12, erlotinib 50 PO): 84.9% | % Inhibition (BxPC-3 tumors; day 15, erlotinib 15 PO): 7.8% | % T/C on day (BxPC-3 tumors; day 15, erlotinib 15 PO): 92.2% | % Inhibition (BxPC-3 tumors; day 15, erlotinib 30 PO): −5.8% | % T/C on day (BxPC-3 tumors; day 15, erlotinib 30 PO): 105.8% | % Inhibition (BxPC-3 tumors; day 15, erlotinib 50 PO): −14.2% | % T/C on day (BxPC-3 tumors; day 15, erlotinib 50 PO): 114.2% | % Inhibition (BxPC-3 tumors; day 19, erlotinib 15 PO): 21.0% | % T/C on day (BxPC-3 tumors; day 19, erlotinib 15 PO): 79.0% | % Inhibition (BxPC-3 tumors; day 19, erlotinib 30 PO): 6.5% | % T/C on day (BxPC-3 tumors; day 19, erlotinib 30 PO): 93.5% | % Inhibition (BxPC-3 tumors; day 19, erlotinib 50 PO): −2.6% | % T/C on day (BxPC-3 tumors; day 19, erlotinib 50 PO): 102.6% | % Inhibition (BxPC-3 tumors; day 21, erlotinib 15 PO): 33.8% | % T/C on day (BxPC-3 tumors; day 21, erlotinib 15 PO): 66.2% | % Inhibition (BxPC-3 tumors; day 21, erlotinib 30 PO): 16.3% | % T/C on day (BxPC-3 tumors; day 21, erlotinib 30 PO): 83.7% | % Inhibition (BxPC-3 tumors; day 21, erlotinib 50 PO): 15.5% | % T/C on day (BxPC-3 tumors; day 21, erlotinib 50 PO): 84.5% | % Inhibition (BxPC-3 tumors; day 26, erlotinib 15 PO): 7.5% | % T/C on day (BxPC-3 tumors; day 26, erlotinib 15 PO): 92.5% | % Inhibition (BxPC-3 tumors; day 26, erlotinib 30 PO): −14.2% | % T/C on day (BxPC-3 tumors; day 26, erlotinib 30 PO): 114.2% | % Inhibition (BxPC-3 tumors; day 26, erlotinib 50 PO): 9.0% | % T/C on day (BxPC-3 tumors; day 26, erlotinib 50 PO): 91.0% | % Inhibition (BxPC-3 tumors; day 29, erlotinib 15 PO): 16.2% | % T/C on day (BxPC-3 tumors; day 29, erlotinib 15 PO): 83.8% | % Inhibition (BxPC-3 tumors; day 29, erlotinib 30 PO): 15.2% | % T/C on day (BxPC-3 tumors; day 29, erlotinib 30 PO): 84.8% | % Inhibition (BxPC-3 tumors; day 29, erlotinib 50 PO): 40.7% | % T/C on day (BxPC-3 tumors; day 29, erlotinib 50 PO): 59.3% | % Inhibition (BxPC-3 tumors; day 33, erlotinib 15 PO): 7.9% | % T/C on day (BxPC-3 tumors; day 33, erlotinib 15 PO): 92.1% | % Inhibition (BxPC-3 tumors; day 33, erlotinib 30 PO): 13.0% | % T/C on day (BxPC-3 tumors; day 33, erlotinib 30 PO): 87.0% | % Inhibition (BxPC-3 tumors; day 33, erlotinib 50 PO): 12.1% | % T/C on day (BxPC-3 tumors; day 33, erlotinib 50 PO): 87.9% | % Inhibition (BxPC-3 tumors; day 40, erlotinib 15 PO): 18.8% | % T/C on day (BxPC-3 tumors; day 40, erlotinib 15 PO): 81.2% | % Inhibition (BxPC-3 tumors; day 40, erlotinib 30 PO): 14.5% | % T/C on day (BxPC-3 tumors; day 40, erlotinib 30 PO): 85.5% | % Inhibition (BxPC-3 tumors; day 40, erlotinib 50 PO): 15.4% | % T/C on day (BxPC-3 tumors; day 40, erlotinib 50 PO): 84.6%

CC(=O)O[C@H]1C(=O)[C@@]2(C)[C@H]([C@H](OC(=O)c3ccccc3)[C@]3(O)C[C@H](OC(=O)[C@H](O)[C@@H](NC(=O)c4ccccc4)c4ccccc4)C(C)=C1C3(C)C)[C@]1(OC(C)=O)CO[C@@H]1C[C@@H]2O [paclitaxel]
% T/C on day 17 (MRI-H-254 tumors; [3]): 99.5% | % T/C on day 20 (MRI-H-254 tumors; [3]): 86.2% | % T/C on day 24 (MRI-H-254 tumors; [3]): 71.9% | % T/C on day 27 (MRI-H-254 tumors; [3]): 77.2% | % T/C on day 32 (MRI-H-254 tumors; [3]): 67.9% | % T/C on day 35 (MRI-H-254 tumors; [3]): 52.3% | % T/C on day 39 (MRI-H-254 tumors; [3]): 51.7% | % T/C on day 47 (MRI-H-254 tumors; [3]): 69.0% | % Inhibition (MRI-H-254 tumors; day 14, PM00104 0.23, doxorubicin 6, paclitaxel 12.5 mg/kg/day): 0.5% | % Inhibition (MRI-H-254 tumors; day 14, PM00104 0.45, doxorubicin 6, paclitaxel 12.5 mg/kg/day): 0.5% | % Inhibition (MRI-H-254 tumors; day 14, PM00104 0.90, paclitaxel 12.5 mg/kg/day): 0.5% | % Inhibition (MRI-H-254 tumors; day 20, PM00104 0.23, doxorubicin 6, paclitaxel 12.5 mg/kg/day): 13.8% | % Inhibition (MRI-H-254 tumors; day 20, PM00104 0.45, doxorubicin 6, paclitaxel 12.5 mg/kg/day): 13.8% | % Inhibition (MRI-H-254 tumors; day 20, PM00104 0.90, paclitaxel 12.5 mg/kg/day): 13.8% | % Inhibition (MRI-H-254 tumors; day 24, PM00104 0.23, doxorubicin 6, paclitaxel 12.5 mg/kg/day): 28.1% | % Inhibition (MRI-H-254 tumors; day 24, PM00104 0.45, doxorubicin 6, paclitaxel 12.5 mg/kg/day): 28.1% | % Inhibition (MRI-H-254 tumors; day 24, PM00104 0.90, paclitaxel 12.5 mg/kg/day): 28.1% | % Inhibition (MRI-H-254 tumors; day 27, PM00104 0.23, doxorubicin 6, paclitaxel 12.5 mg/kg/day): 22.8% | % Inhibition (MRI-H-254 tumors; day 27, PM00104 0.45, doxorubicin 6, paclitaxel 12.5 mg/kg/day): 22.8% | % Inhibition (MRI-H-254 tumors; day 27, PM00104 0.90, paclitaxel 12.5 mg/kg/day): 22.8% | % Inhibition (MRI-H-254 tumors; day 32, PM00104 0.23, doxorubicin 6, paclitaxel 12.5 mg/kg/day): 32.1% | % Inhibition (MRI-H-254 tumors; day 32, PM00104 0.45, doxorubicin 6, paclitaxel 12.5 mg/kg/day): 32.1% | % Inhibition (MRI-H-254 tumors; day 32, PM00104 0.90, paclitaxel 12.5 mg/kg/day): 32.1% | % Inhibition (MRI-H-254 tumors; day 35, PM00104 0.23, doxorubicin 6, paclitaxel 12.5 mg/kg/day): 47.7% | % Inhibition (MRI-H-254 tumors; day 35, PM00104 0.45, doxorubicin 6, paclitaxel 12.5 mg/kg/day): 47.7% | % Inhibition (MRI-H-254 tumors; day 35, PM00104 0.90, paclitaxel 12.5 mg/kg/day): 47.7% | % Inhibition (MRI-H-254 tumors; day 39, PM00104 0.23, doxorubicin 6, paclitaxel 12.5 mg/kg/day): 48.3% | % Inhibition (MRI-H-254 tumors; day 39, PM00104 0.45, doxorubicin 6, paclitaxel 12.5 mg/kg/day): 48.3% | % Inhibition (MRI-H-254 tumors; day 39, PM00104 0.90, paclitaxel 12.5 mg/kg/day): 48.3% | % Inhibition (MRI-H-254 tumors; day 47, PM00104 0.23, doxorubicin 6, paclitaxel 12.5 mg/kg/day): 31.0% | % Inhibition (MRI-H-254 tumors; day 47, PM00104 0.45, doxorubicin 6, paclitaxel 12.5 mg/kg/day): 31.0% | % Inhibition (MRI-H-254 tumors; day 47, PM00104 0.90, paclitaxel 12.5 mg/kg/day): 31.0%

O=c1[nH]cc(F)c(=O)[nH]1 [5-FU, 5-fluorouracil]
pIC50 [1]: 5.74 | pIC50 [2]: 5.40
